Consider 22 compounds from patent US9000044B2, “Substituted naphthylacetic acids” (Hoffmann-La Roche Inc., priority 2012, dated 2015).

For this test, the target named is human CRTH2 (Homo sapiens (Human), UniProt Q9Y5Y4). The test can be described thus: Calcium Flux Assay Using Fluorometric Imaging Plate Reader (FLIPR). The class given is cell-based. The note with it: CHO-K1 cells with G-alpha 16 and human CRTH2; inhibition of DK-PGD2 ligand-induced Ca2+ flux. The method, then:
Calcium Flux Assay Using Fluorometric Imaging Plate Reader (FLIPR)
Cell Culture Conditions: CHO-K1 cells previously transfected with G-alpha 16 were subsequently transfected with the human CRTH2 receptor and the neomycin resistance gene. Following selection in 800 μg/mL G418 (geneticin), individual clones were assayed for their receptor expression based on staining with an anti human CRTH2 IgG, followed by assaying for their response to 13,14-dihydro-15-keto Prostaglandin D2 (DK-PDG2) (ligand) in the Ca^2+ Flux assay. Positive clones were then cloned by limiting dilution cloning. The transfected cells were cultured in Ham's F-12 medium supplemented with 10% fetal bovine serum, 2 mM glutamine, 100 U/mL penicillin/100 μg/mL streptomycin, 200 μg/mL hygromycin B, and 800 μg/mL G418 (geneticin). Cells were harvested with trypsin-EDTA (trypsin-ethylenediaminetetraacetic acid) and counted using ViaCount® reagent (from Guava Technologies, Inc. which contains two DNA-binding dyes that enable the reagent user to distinguish between viable and non-viable cells). The cell suspension volume was adjusted to 2.5×10^5 cells/mL with complete growth media. Aliquots of 50 μL were dispensed into BD Falcon™ 384 well black/clear microplates (from BD Biosciences, a division of Becton, Dickinson and Company) and the microplates were placed in a 37° C. CO2 incubator overnight. The following day, the microplates were used in the assay.
Loading Buffer containing dye (from the FLIPR® Calcium 3 Assay Kit from Molecular Devices, a division of MDS Analytical Technologies and MDS Inc.) was prepared by dissolving the contents of one bottle into 200 mL Hank's Balanced Salt Solution containing 20 mM HEPES (4-(2-hydroxyethyl)-1-piperazineethanesulfonic acid) and 2.5 mM probenecid. Growth media was removed from the cell plates and 25 μL of Hank's Balanced Salt Solution (HBSS) containing 20 mM HEPES, 0.05% BSA and 2.5 mM probenecid was added to each well followed by 25 μL of diluted dye using a Multidrop dispenser. The plates were then incubated for 1 hour at 37° C.
During the incubation, test compound plates were prepared by adding 90 μL of HBSS/20 mM HEPES/0.005% BSA buffer to the 2 μL of serial diluted compounds. To prepare serial diluted compounds, 20 mM stocks of compounds were dissolved in 100% DMSO. The compound dilution plate was set up as follows: well #1 received 5 μL of compound plus 10 μL of DMSO. Wells 2-10 received 10 μL of DMSO. 5 μL was mixed and transferred from well #1 into well #2. 1:3 serial dilutions were continued out 10 steps. 2 μL of diluted compound was transferred into duplicate wells of a 384 well “assay plate” and then 90 μL of buffer was added.
After incubation, both the cell and “assay plate” plates were brought to the fluorometric imaging plate reader (FLIPR®) and 20 μL of the diluted compounds were transferred to the cell plates by the FLIPR®. Plates were then incubated for 1 hour at room temperature. […] During the assay, fluorescence readings were taken simultaneously from all 384 wells of the cell plate every 1.5 seconds. Five readings were taken to establish a stable baseline, then 20 μL of sample was rapidly (30 μL/sec) and simultaneously added to each well of the cell plate. The fluorescence was continuously monitored before, during and after sample addition for a total elapsed time of 100 seconds. Responses (increase in peak fluorescence) in each well following agonist addition were determined. The initial fluorescence reading from each well, prior to ligand stimulation, was used as a zero baseline value for the data from that well. The responses were expressed as % inhibition of the buffer control.

Sequence of human CRTH2 (Q9Y5Y4 whole entry): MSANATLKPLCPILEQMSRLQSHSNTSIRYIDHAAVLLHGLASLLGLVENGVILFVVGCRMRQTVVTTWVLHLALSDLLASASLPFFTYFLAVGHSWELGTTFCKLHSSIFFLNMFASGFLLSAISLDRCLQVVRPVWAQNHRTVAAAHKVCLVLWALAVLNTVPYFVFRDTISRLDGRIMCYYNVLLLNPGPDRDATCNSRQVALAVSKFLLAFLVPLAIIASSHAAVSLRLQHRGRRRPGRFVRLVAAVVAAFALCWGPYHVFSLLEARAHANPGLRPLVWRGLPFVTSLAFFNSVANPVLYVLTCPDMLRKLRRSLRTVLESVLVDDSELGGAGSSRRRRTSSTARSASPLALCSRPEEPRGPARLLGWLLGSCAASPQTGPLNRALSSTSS

For the compound `Cc1c(CC(=O)O)cc2ccc(Cl)cc2c1-c1ccc(S(=O)(=O)NCCO)cc1` [Example 56, {6-Chloro-4-[4-(2-hydroxy-ethylsulfamoyl)-phenyl]-3-methyl-naphthalen-2-yl}-acetic acid], the IC50 (commonly the concentration needed to halve the response being measured) was found to be 5.6 nM. Then `Cc1c(CC(=O)O)cc2ccc(F)cc2c1-c1ccc(S(=O)(=O)c2c(F)cccc2F)cc1` [Example 11, {4-[4-(2,6-Difluoro-benzenesulfonyl)-phenyl]-6-fluoro-3-methyl-naphthalen-2-yl}-acetic acid], with 1.2 nM. For `COc1ccc(CNS(=O)(=O)c2ccc(-c3c(C)c(CC(=O)O)cc4ccc(Cl)cc34)cc2)cc1` [Example 39, {6-Chloro-4-[4-(4-methoxy-benzylsulfamoyl)-phenyl]-3-methyl-naphthalen-2-yl}-acetic acid], the IC50 amounted to 13.2 nM. As to `Cc1c(CC(=O)O)cc2ccc(F)cc2c1-c1ccc(S(=O)(=O)c2cccc(Cl)c2)cc1` [Example 3, {4-[4-(3-Chloro-benzenesulfonyl)-phenyl]-6-fluoro-3-methyl-naphthalen-2-yl}-acetic acid], the IC50 turned out to be 3.9 nM. With `Cc1c(CC(=O)O)cc2ccc(F)cc2c1-c1ccc(S(=O)(=O)c2cc(Cl)ccc2Cl)cc1` [Example 9, {4-[4-(2,5-Dichloro-benzenesulfonyl)-phenyl]-6-fluoro-3-methyl-naphthalen-2-yl}-acetic acid], the IC50 worked out at 3.7 nM. For the compound `Cc1c(CC(=O)O)cc2ccc(Cl)cc2c1-c1ccc(S(=O)(=O)Nc2cccc(Cl)c2)cc1` [Example 32, {6-Chloro-4-[4-(3-chloro-phenylsulfamoyl)-phenyl]-3-methyl-naphthalen-2-yl}-acetic acid], the IC50 stood at 4.7 nM. For the compound `Cc1c(CC(=O)O)cc2ccc(Cl)cc2c1-c1ccc(S(=O)(=O)N2CCCCC2)cc1` [Example 34, {6-Chloro-3-methyl-4-[4-(piperidine-1-sulfonyl)-phenyl]-naphthalen-2-yl}-acetic acid], the IC50 was determined as 0.9 nM.

On to `COc1ccc(CN(C(C)C)S(=O)(=O)c2ccc(-c3c(C)c(CC(=O)O)cc4ccc(F)cc34)cc2)cc1` [Example 53, (6-Fluoro-4-{4-[isopropyl-(4-methoxy-benzyl)-sulfamoyl]-phenyl}-3-methyl-naphthalen-2-yl)-acetic acid], for which the 50% inhibitory concentration (IC50) is 1.3 nM. On to `COc1ccc(CN(C(C)C)S(=O)(=O)c2ccc(-c3c(C)c(CC(=O)O)cc4ccc(Cl)cc34)cc2)cc1` [Example 40, (6-Chloro-4-{4-[isopropyl-(4-methoxy-benzyl)-sulfamoyl]-phenyl}-3-methyl-naphthalen-2-yl)-acetic acid], for which the IC50 turned out to be 3.1 nM. As to `Cc1c(CC(=O)O)cc2ccc(Cl)cc2c1-c1ccc(S(=O)(=O)c2ccc(F)cc2F)cc1` [Example 23, {6-Chloro-4-[4-(2,4-difluoro-benzenesulfonyl)-phenyl]-3-methyl-naphthalen-2-yl}-acetic acid], the 50% inhibitory concentration (IC50) was 2.3 nM. For `Cc1c(CC(=O)O)cc2ccc(F)cc2c1-c1ccc(S(=O)(=O)c2ccc(F)cc2F)cc1` [Example 10, {4-[4-(2,4-Difluoro-benzenesulfonyl)-phenyl]-6-fluoro-3-methyl-naphthalen-2-yl}-acetic acid], the IC50 was 1.2 nM.

`Cc1c(CC(=O)O)cc2ccc(Cl)cc2c1-c1ccc(S(=O)(=O)c2c(F)cccc2F)cc1` [Example 24, {6-Chloro-4-[4-(2,6-difluoro-benzenesulfonyl)-phenyl]-3-methyl-naphthalen-2-yl}-acetic acid]: the IC50 worked out at 312 nM. With `Cc1c(CC(=O)O)cc2ccc(Cl)cc2c1-c1ccc(S(=O)(=O)c2cc(F)cc(F)c2)cc1` [Example 27, {6-Chloro-4-[4-(3,5-difluoro-benzenesulfonyl)-phenyl]-3-methyl-naphthalen-2-yl}-acetic acid], the half-maximal inhibitory concentration (IC50) was found to be 0.7 nM. Turning to `Cc1c(Cl)cccc1NS(=O)(=O)c1ccc(-c2c(C)c(CC(=O)O)cc3ccc(F)cc23)cc1` [Example 44, {4-[4-(3-Chloro-2-methyl-phenylsulfamoyl)-phenyl]-6-fluoro-3-methyl-naphthalen-2-yl}-acetic acid], the IC50 turned out to be 0.9 nM.

Turning to `Cc1c(CC(=O)O)cc2ccc(F)cc2c1-c1ccc(S(=O)(=O)NC(C)C)cc1` [Example 50, [6-Fluoro-4-(4-isopropylsulfamoyl-phenyl)-3-methyl-naphthalen-2-yl]-acetic acid], the IC50 was 1.7 nM. Then `Cc1c(CC(=O)O)cc2ccc(Cl)cc2c1-c1ccc(S(=O)(=O)Nc2ccc(OC(F)(F)F)cc2)cc1` [Example 30, {6-Chloro-3-methyl-4-[4-(4-trifluoromethoxy-phenylsulfamoyl)-phenyl]-naphthalen-2-yl}-acetic acid], with 34.3 nM; and `Cc1c(CC(=O)O)cc2ccc(Cl)cc2c1-c1ccc(S(=O)(=O)c2ccc(Cl)cc2)cc1` [Example 17, {6-Chloro-4-[4-(4-chloro-benzenesulfonyl)-phenyl]-3-methyl-naphthalen-2-yl}-acetic acid], with 7 nM; and `Cc1c(CC(=O)O)cc2ccc(Cl)cc2c1-c1ccc(S(=O)(=O)c2cc(C(F)(F)F)cc(C(F)(F)F)c2)cc1` [Example 25, {4-[4-(3,5-Bis-trifluoromethyl-benzenesulfonyl)-phenyl]-6-chloro-3-methyl-naphthalen-2-yl}-acetic acid], with 44.7 nM. In the case of `Cc1c(CC(=O)O)cc2ccc(F)cc2c1-c1ccc(S(=O)(=O)NC2CCCCC2)cc1` [Example 49, [4-(4-Cyclohexylsulfamoyl-phenyl)-6-fluoro-3-methyl-naphthalen-2-yl]-acetic acid], the half-inhibitory concentration (IC50) is 1.5 nM. Then `Cc1c(CC(=O)O)cc2ccc(F)cc2c1-c1ccc(S(=O)(=O)c2cc(C(F)(F)F)cc(C(F)(F)F)c2)cc1` [Example 12, {4-[4-(3,5-Bis-trifluoromethyl-benzenesulfonyl)-phenyl]-6-fluoro-3-methyl-naphthalen-2-yl}-acetic acid], with 14 nM. Then `Cc1c(CC(=O)O)cc2ccc(F)cc2c1-c1ccc(S(=O)(=O)NCCO)cc1` [Example 57, {6-Fluoro-4-[4-(2-hydroxy-ethylsulfamoyl)-phenyl]-3-methyl-naphthalen-2-yl}-acetic acid], with 6.1 nM; and `Cc1c(CC(=O)O)cc2ccc(Cl)cc2c1-c1ccc(S(=O)(=O)c2cccc(Cl)c2)cc1` [Example 16], with 8.1 nM.
